From US20260098053A1, “COMPOSITIONS AND METHODS FOR TREATING CNS DISORDERS” (SAGE THERAPEUTICS, INC., priority 2019, published 2026)
pIC50: −log10 of the molar value.

What follows are compounds tested against [35S]-TBPS binding, rat brain cortical membranes (assay: Steroid inhibition of [35S]-TBPS binding). Conditions: Table 4, 3 nM [35S]-TBPS, in the presence of 5 mM GABA, read-out: TBPS IC50.
Outline: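 Washed P2 cortical membranes from Sprague-Dawley rats, in 200 mM NaCl/50 mM Na-K phosphate pH 7.4, incubated 90 min at room temp with 3 nM [35S]-TBPS, […] GABA and test drug (0.5% DMSO final). Nonspecific binding defined with […] unlabeled TBPS; filtration and scintillation counting. IC50 and Imax from non-linear curve fits, means±SEM of experiments.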
For `CC[C@@]1(O)CCC[C@H]2[C@H](CC[C@@H]3[C@@H]2CC[C@]2(C)[C@H](C(C)=O)CCC[C@@H]32)C1` [Example 36, 1-((1R,4aS,4bR,6aR,8R,11aS,11bR,13aS)-8-ethyl-8-hydroxy-13a-methyloctadecahydro-1H-cyclohepta[a]phenanthren-1-yl)ethenone], the pIC50 was less than 6.00. Compound `C[C@@]1(O)CCC[C@@]2(C)[C@H](CC[C@@H]3[C@@H]2CC[C@]2(C)[C@@H](C(=O)CCn4cc(C#N)cn4)CCC[C@@H]32)C1` [Example 18, 1-(3-((1S,4aS,4bR,6aR,8R,11aS,11bS,13aS)-8-hydroxy-8,11a,13a-trimethyloctadecahydro-1H-cyclohepta[a]phenanthren-1-yl)-3-oxopropyl)-1H-pyrazole-4-carbonitrile] has a pIC50 greater than 7.00. `CC[C@]12CC[C@@](C)(O)C[C@H]1CC[C@H]1[C@@H]3CCCC[C@@H](C(C)=O)[C@@]3(C)CC[C@@H]12` [Example 23, 1-((2R,4aS,4bS,6aS,7R,11aS,11bS,13aR)-4a-ethyl-2-hydroxy-2,6a-dimethyloctadecahydro-1H-cyclohepta[a]phenanthren-7-yl)ethanone] was tested, and the pIC50 was 6.00 to 7.00. `C[C@@]1(O)CCC[C@@]2(C)[C@@H](CC[C@@H]3[C@@H]2CC[C@]2(C)[C@@H](C(=O)CCn4cc(C#N)cn4)CCC[C@@H]32)C1` [Example 41, 1-(3-((1S,4aS,4bR,6aS,8R,11aS,11bS,13aS)-8-hydroxy-8,11a,13a-trimethyloctadecahydro-1H-cyclohepta[a]phenanthren-1-yl)-3-oxopropyl)-1H-pyrazole-4-carbonitrile] was tested, and the pIC50 was greater than 7.00. `C[C@]1(O)CC[C@H]2CC[C@@H]3[C@H](CC[C@]4(C)[C@@H](C(=O)Cn5cc(C#N)cn5)CCC[C@@H]34)[C@H]2CC1` [Example 4, 1-(2-((1S,4aS,4bR,6aR,9S,11aS,11bR,13aS)-9-hydroxy-9,13a-dimethyloctadecahydro-1H-cyclohepta[a]phenanthren-1-yl)-2-oxoethyl)-1H-pyrazole-4-carbonitrile] gave a pIC50 of 6.00 to 7.00. For `CC[C@@]1(O)CCC[C@@]2(C)[C@H](CC[C@@H]3[C@@H]2CC[C@]2(C)[C@@H](C(C)=O)CCC[C@@H]32)C1` [Example 37, 1-((1S,4aS,4bR,6aR,8R,11aS,11bS,13aS)-8-ethyl-8-hydroxy-11a,13a-dimethyloctadecahydro-1H-cyclohepta[a]phenanthren-1-yl)ethanone], the pIC50 was 6.00 to 7.00. `CC[C@]12CC[C@H]3[C@@H](CC=C4CC[C@](C)(O)CC[C@@]43C)[C@@H]1CC[C@@H]2C(=O)Cn1cc(C#N)cn1` [Example 35, 1-(2-((1S,3aS,3bS,8S,10aR,10bS,12aS)-12a-ethyl-8-hydroxy-8,10a-dimethyl-1,2,3,3a,3b,4,6,7,8,9,10,10a,10b,11,12,12a-hexadecahydrocyclohepta[a]cyclopenta[f]naphthalen-1-yl)-2-oxoethyl)-1H-pyrazole-4-carbonitrile] was tested, and the pIC50 was greater than 7.00. `CC[C@]1(O)CC[C@H]2CC[C@@H]3[C@H](CC[C@]4(C)[C@H](C(C)=O)CCC[C@@H]34)[C@H]2CC1` [Example 47, 1-((1R,4aS,4bR,6aR,9S,11aS,11bR,13aS)-9-ethyl-9-hydroxy-13a-methyloctadecahydro-1H-cyclohepta[a]phenanthren-1-yl)ethanone] was tested, and the pIC50 was less than 6.00. `Cc1nnn(CC(=O)[C@H]2CCCC[C@H]3[C@@H]4CC[C@@H]5C[C@](C)(O)CCC[C@]5(C)[C@H]4CC[C@]23C)n1` [Example 62, 1-((1S,5aS,5bR,7aR,9R,12aS,12bS,14aS)-9-hydroxy-9,12a,14a-trimethylicosahydrodicyclohepta[a,f]naphthalen-1-yl)-2-(5-methyl-2H-tetrazol-2-yl)ethanone] gave a pIC50 greater than 7.00. With `CC[C@@]1(O)CCC[C@H]2[C@H](CC[C@@H]3[C@@H]2CC[C@]2(C)[C@@H](C(C)=O)CCC[C@@H]32)C1` [Example 13, 1-((1S,4aS,4bR,6aR,8R,11aS,11bR,13aS)-8-ethyl-8-hydroxy-13a-methyloctadecahydro-1H-cyclohepta[a]phenanthren-1-yl)ethan-1-one] the pIC50 was 6.00 to 7.00. In the case of `CC[C@@]1(O)CCC[C@@]2(C)[C@H](CC[C@@H]3[C@@H]2CC[C@]2(C)[C@@H](C(=O)Cn4cc(C#N)cn4)CCC[C@@H]32)C1` [Example 38, 1-(2-((1S,4aS,4bR,6aR,8R,11aS,11bS,13aS)-8-ethyl-8-hydroxy-11a,13a-dimethyloctadecahydro-1H-cyclohepta[a]phenanthren-1-yl)-2-oxoethyl)-1H-pyrazole-4-carbonitrile], the pIC50 was 6.00 to 7.00. Compound `CC[C@]12CC[C@H]3[C@@H](CC[C@@H]4CC[C@@](O)(COC)CC[C@@H]43)[C@@H]1CC[C@@H]2C(=O)Cn1cc(C#N)cn1` [Example 31, 1-(2-((1S,3aS,3bR,5aR,8S,10aS,10bR,12aS)-12a-ethyl-8-hydroxy-8-(methoxymethyl)octadecahydrocyclohepta[a]cyclopenta[f]naphthalen-1-yl)-2-oxoethyl)-1H-pyrazole-4-carbonitrile] has a pIC50 of 6.00 to 7.00. Work on `CC[C@]12CC[C@@](C)(O)CC[C@H]1CC[C@H]1[C@@H]3CC[C@H](C(=O)Cn4cc(C#N)cn4)[C@@]3(C)CC[C@@H]12` [Example 26] yielded a pIC50 of 6.00 to 7.00.

Same assay, conditions: Table 5, 3 nM [35S]-TBPS, in the presence of 5 mM GABA, read-out: TBPS IC50
Compound `CC(=O)[C@@H]1CC[C@H]2[C@@H]3CC[C@@H]4C[C@](C)(O)CC[C@@H]4[C@H]3CC[C@@H]21` [Example 67, 1-((3R,5R,8R,9R,10S,13S,14S,17R)-3-hydroxy-3-methylhexadecahydro-1H-cyclopenta[a]phenanthren-17-yl)ethan-1-one] has a pIC50 of less than 6.00. Compound `CC(=O)[C@H]1CC[C@H]2[C@@H]3CC[C@@H]4C[C@](C)(O)CC[C@@H]4[C@H]3CC[C@@H]21` [Example 66] has a pIC50 greater than 7.00.

Same assay, conditions: Table 6, 3 nM [35S]-TBPS, in the presence of 5 mM GABA, read-out: IC50
Compound `C[C@@]1(O)CC[C@@]2(C3CC3)[C@H](CC[C@H]3[C@@H]4CCC[C@H](C(=O)Cn5cc(C#N)cn5)[C@@]4(C)CC[C@@H]32)C1` [Example 87, 1-(2-((1S,4aS,4bS,6aR,8R,10aR,10bS,12aS)-10a-cyclopropyl-8-hydroxy-8,12a-dimethyloctadecahydrochrysen-1-yl)-2-oxoethyl)-1H-pyrazole-4-carbonitrile] has a pIC50 greater than 7.00.
